The test system of the data set is CCRIS mutagenicity, Ames/micronucleus/aberration tests. Description: CCRIS mutagenicity studies.

The source made the active and inactive calls. The rule behind the calls is not given here.

As to `CC1(C)CON(Cc2ccccc2Cl)C1=O`, the mutagenic call (End Point: In vivo chromosomal aberrations, Test System: Bone marrow, Species: Rat, Strain/Sex: Sprague-Dawley/Male, Route: Gavage) is “inactive; negative (purity 88.8%)”; the mutagenic call (Test System: Ames Salmonella typhimurium, Strain/Indicator: TA98, Metabolic Activation: None, Method: Standard Plate) is “inactive; negative (purity 92.4%)”; the mutagenic call (Test System: Ames Salmonella typhimurium, Strain/Indicator: TA98, Metabolic Activation: Rat, liver, S-9, Aroclor 1254, Method: Standard Plate) was “inactive; negative (purity 92.4%)”; the mutagenic call (Test System: Ames Salmonella typhimurium, Strain/Indicator: TA100, Metabolic Activation: None, Method: Standard Plate) was “inactive; negative (purity 92.4%)”; the mutagenic call (Test System: Ames Salmonella typhimurium, Strain/Indicator: TA100, Metabolic Activation: Rat, liver, S-9, Aroclor 1254, Method: Standard Plate) was “inactive; negative (purity 92.4%)”; the mutagenic call (Test System: Ames Salmonella typhimurium, Strain/Indicator: TA1535, Metabolic Activation: None, Method: Standard Plate) was “inactive; negative (purity 92.4%)”. Further, the mutagenic call by setting is: (Test System: Ames Salmonella typhimurium, Strain/Indicator: TA1535, Metabolic Activation: Rat, liver, S-9, Aroclor 1254, Method: Standard Plate) “inactive; negative (purity 92.4%)”; (Test System: Ames Salmonella typhimurium, Strain/Indicator: TA1537, Metabolic Activation: None, Method: Standard Plate) “inactive; negative (purity 92.4%)”; (Test System: Ames Salmonella typhimurium, Strain/Indicator: TA1537, Metabolic Activation: Rat, liver, S-9, Aroclor 1254, Method: Standard Plate) “inactive; negative (purity 92.4%)”; (Test System: Ames Salmonella typhimurium, Strain/Indicator: TA1538, Metabolic Activation: None, Method: Standard Plate) “inactive; negative (purity 92.4%)”; (Test System: Ames Salmonella typhimurium, Strain/Indicator: TA1538, Metabolic Activation: Rat, liver, S-9, Aroclor 1254, Method: Standard Plate) “inactive; negative (purity 92.4%)”; (Test System: UDS Rat hepatocytes, Strain/Indicator: Thymidine incorporation, Metabolic Activation: None, Method: Autoradiography) “inactive; negative (purity 88.8%)”.
Regarding `CC(C)=CCC[C@](C)(O)[C@@H]1CC=C(C)CC1`, the mutagenic call runs as follows: (End Point: AMES SALMONELLA TYPHIMURIUM, Test System: TA97A, Metabolic Activation: NONE, Method: STANDARD PLATE) “inactive; negative”; (End Point: AMES SALMONELLA TYPHIMURIUM, Test System: TA97A, Metabolic Activation: RAT, LIVER, S-9, AROCLOR 1254, Method: STANDARD PLATE) “inactive; negative”; (End Point: AMES SALMONELLA TYPHIMURIUM, Test System: TA98, Metabolic Activation: NONE, Method: STANDARD PLATE) “inactive; negative”; (End Point: AMES SALMONELLA TYPHIMURIUM, Test System: TA98, Metabolic Activation: RAT, LIVER, S-9, AROCLOR 1254, Method: STANDARD PLATE) “inactive; negative”; (End Point: AMES SALMONELLA TYPHIMURIUM, Test System: TA100, Metabolic Activation: NONE, Method: STANDARD PLATE) “inactive; negative”; (End Point: AMES SALMONELLA TYPHIMURIUM, Test System: TA100, Metabolic Activation: RAT, LIVER, S-9, AROCLOR 1254, Method: STANDARD PLATE) “inactive; negative”. Moreover, the mutagenic call runs as follows: (End Point: AMES SALMONELLA TYPHIMURIUM, Test System: TA1535, Metabolic Activation: NONE, Method: STANDARD PLATE) “inactive; negative”; (End Point: AMES SALMONELLA TYPHIMURIUM, Test System: TA1535, Metabolic Activation: RAT, LIVER, S-9, AROCLOR 1254, Method: STANDARD PLATE) “inactive; negative”.
As for `C[C@]12CC[C@@H]3c4ccc(O)cc4CC[C@H]3C13CCC2(O)CC3`, the mutagenic call by setting is: (End Point: IN VITRO CHROMOSOMAL ABERRATIONS, Test System: HUMAN PERIPHERAL LYMPHOCYTES, Metabolic Activation: NONE) “inactive; negative at 20-24 hr; positive (high doses) at 48 hr”; (End Point: IN VITRO CHROMOSOMAL ABERRATIONS, Test System: HUMAN PERIPHERAL LYMPHOCYTES, Metabolic Activation: RAT, LIVER, S-9, AROCLOR 1254) “inactive; negative”.
Consider `O=C1c2cccc3ccc4ccc5cccc1c5c4c23`, for which the mutagenic call runs as follows: (Test System: AMES SALMONELLA TYPHIMURIUM, Strain/Indicator: TA98, Metabolic Activation: NONE, Method: STANDARD PLATE) “inactive; negative”; (Test System: AMES SALMONELLA TYPHIMURIUM, Strain/Indicator: TA100, Metabolic Activation: NONE, Method: STANDARD PLATE) “inactive; negative”.
On to `O=C1OC(=O)c2ccccc21`, for which the mutagenic call runs as follows: (End Point: IN VITRO CHROMOSOMAL ABERRATIONS, Test System: CHINESE HAMSTER OVARY CELLS, Metabolic Activation: NONE) “inactive; negative”; (End Point: IN VITRO CHROMOSOMAL ABERRATIONS, Test System: CHINESE HAMSTER OVARY CELLS, Metabolic Activation: RAT, LIVER, S-9, AROCLOR 1254) “inactive; negative”; (End Point: IN VITRO CHROMOSOMAL ABERRATIONS, Test System: CHO CELLS, Metabolic Activation: NONE) “active; positive; precipitation occurred at 10 mm”; (Test System: AMES SALMONELLA TYPHIMURIUM, Strain/Indicator: TA98, Metabolic Activation: HAMSTER, LIVER, S-9, AROCLOR 1254 (10%), Method: PREINCUBATION) “inactive; negative”; (Test System: AMES SALMONELLA TYPHIMURIUM, Strain/Indicator: TA98, Metabolic Activation: NONE, Method: PREINCUBATION) “inactive; negative”; (Test System: AMES SALMONELLA TYPHIMURIUM, Strain/Indicator: TA98, Metabolic Activation: RAT LIVER S-9, PHENOBARBITAL AND BETA-NAPHTHOFLAVONE, Method: PREINCUBATION) “inactive; negative”. For the same compound, the mutagenic call (Test System: AMES SALMONELLA TYPHIMURIUM, Strain/Indicator: TA98, Metabolic Activation: RAT, LIVER, S-9, AROCLOR 1254 (10%), Method: PREINCUBATION) was “inactive; negative”; the mutagenic call (Test System: AMES SALMONELLA TYPHIMURIUM, Strain/Indicator: TA100, Metabolic Activation: HAMSTER, LIVER, S-9, AROCLOR 1254 (10%), Method: PREINCUBATION) was “inactive; negative”; the mutagenic call (Test System: AMES SALMONELLA TYPHIMURIUM, Strain/Indicator: TA100, Metabolic Activation: NONE, Method: PREINCUBATION) was “inactive; negative”; the mutagenic call (Test System: AMES SALMONELLA TYPHIMURIUM, Strain/Indicator: TA100, Metabolic Activation: RAT LIVER S-9, PHENOBARBITAL AND BETA-NAPHTHOFLAVONE, Method: PREINCUBATION) was “inactive; negative”; the mutagenic call (Test System: AMES SALMONELLA TYPHIMURIUM, Strain/Indicator: TA100, Metabolic Activation: RAT, LIVER, S-9, AROCLOR 1254 (10%), Method: PREINCUBATION) is “inactive; negative”; the mutagenic call (Test System: AMES SALMONELLA TYPHIMURIUM, Strain/Indicator: TA1535, Metabolic Activation: HAMSTER, LIVER, S-9, AROCLOR 1254 (10%), Method: PREINCUBATION) is “inactive; negative”. The mutagenic call is, setting by setting: (Test System: AMES SALMONELLA TYPHIMURIUM, Strain/Indicator: TA1535, Metabolic Activation: NONE, Method: PREINCUBATION) “inactive; negative”; (Test System: AMES SALMONELLA TYPHIMURIUM, Strain/Indicator: TA1535, Metabolic Activation: RAT LIVER S-9, PHENOBARBITAL AND BETA-NAPHTHOFLAVONE, Method: PREINCUBATION) “inactive; negative”; (Test System: AMES SALMONELLA TYPHIMURIUM, Strain/Indicator: TA1535, Metabolic Activation: RAT, LIVER, S-9, AROCLOR 1254 (10%), Method: PREINCUBATION) “inactive; negative”; (Test System: AMES SALMONELLA TYPHIMURIUM, Strain/Indicator: TA1537, Metabolic Activation: HAMSTER, LIVER, S-9, AROCLOR 1254 (10%), Method: PREINCUBATION) “inactive; negative”; (Test System: AMES SALMONELLA TYPHIMURIUM, Strain/Indicator: TA1537, Metabolic Activation: NONE, Method: PREINCUBATION) “inactive; negative”; (Test System: AMES SALMONELLA TYPHIMURIUM, Strain/Indicator: TA1537, Metabolic Activation: RAT LIVER S-9, PHENOBARBITAL AND BETA-NAPHTHOFLAVONE, Method: PREINCUBATION) “inactive; negative”. Further, the mutagenic call by setting is: (Test System: AMES SALMONELLA TYPHIMURIUM, Strain/Indicator: TA1537, Metabolic Activation: RAT, LIVER, S-9, AROCLOR 1254 (10%), Method: PREINCUBATION) “inactive; negative”; (Test System: E.COLI, Strain/Indicator: WP2UVRA, Metabolic Activation: NONE, Method: PREINCUBATION) “inactive; negative”; (Test System: E.COLI, Strain/Indicator: WP2UVRA, Metabolic Activation: RAT LIVER S-9, PHENOBARBITAL AND BETA-NAPHTHOFLAVONE, Method: PREINCUBATION) “inactive; negative”.
On to `Oc1ccc2cc3c4ccccc4c4ccccc4c3cc2c1O`, for which, for the setting “Test System: AMES SALMONELLA TYPHIMURIUM, Strain/Indicator: TA100, Metabolic Activation: RAT, LIVER, S-9, AROCLOR 1254, Method: PREINCUBATION”, the mutagenic call is “active; positive”.

The values above are taken from PubChem BioAssay AID1259407 (Chemical Carcinogenesis Research Information System (CCRIS), 2018).
